Data from US11459586B2, “Methods for increasing efficiency of nuclease-mediated gene editing in stem cells” (President and Fellows of Harvard College, priority 2016, dated 2022).

Test system: human iPSC
Test: gene targeting (mThy1, mCD147) in hiPSC transiently transfected with Cas9-IRES-anti-apoptotic gene plasmids
Assay type: cell-based
Procedure: FIGS. 4A-D. Bcl-2 overexpression increases HR-mediated gene targeting in human iPSC when transiently transfected with the Cas9 nuclease. FIG. 4A. Mouse Thy1 gene targeting scheme. FIG. 4B. Plasmids were constructed to constitutively express Cas9 together with an anti-apoptotic gene (separated by an IRES) under the constitutively active EF1α promoter. Plain human iPSC were nucleofected with 0.5 μg of one of these Cas9 plasmids together with 2 μg of the mThy1 targeting vector and 1.5 μg of plasmids expressing the Thy1 Left, Right, both, or no sgRNAs (pUC19). Five days later, cells were analyzed by flow cytometry. FIG. 4C. Flow cytometry staining for mThy1 and hThy1 for the Cas9 only sample gated on live single cells; the percent of cells in each quadrant is indicated. […] FIG. 4D. Compiled gene editing frequencies. The percent of mThy1^+hThy1^− (bottom portion of each bar in the left, center, and right grafts), mThy1^+hThy1^+ (top portion of bars in the left and center graphs), and mThy1^−hThy1^− (top portion of bars in the right graph) cells is graphed for each indicated sample. Lines mark the percentages for the Cas9 only sample. Results are representative of two independent experiments.
FIGS. 8A-F. Wild type Bcl-2 improves gene targeting at various genomic loci across multiple hiPSC lines. FIG. 8A. Plasmids were constructed to constitutively express the Cas9 nuclease with a form of Bcl-2 (separated by an IRES), and a sgRNA. Three human iPSC lines were nucleofected with 2 μg of mThy1 or mCD147 targeting vector and 2 μg of “Cas9 sgRNA” or “Cas9 Bcl-2 sgRNA” expression plasmid. 5-9 days later, cells were analyzed by flow cytometry. FIG. 8B. Mouse Thy1 gene targeting scheme. FIG. 8C. Single amino acid mutations were generated for the Bcl-2 BH1 (G145A) or BH4 (Y28A) domains. Compiled gene editing frequencies for cells transfected with the Left, Right, or Both Thy1 sgRNAs. The percent of mThy1^+hThy1^− (bottom portion of each set of bars in each graph), mThy1^+hThy1^+ (top portion of left and center sets of bars in each graph and center portion of right set of bars in each graph), and mThy1^−hThy1^− (top portion of right set of bars in each graph) cells among the various samples is indicated. FIG. 8D. Mouse CD147 gene targeting scheme. FIG. 8E. Flow cytometry staining for mCD147 and hCD147 for retrovirally-derived PGP1 hiPSC transfected with “Cas9 sgRNA” or “Cas9 Bcl-2 sgRNA”. Samples are gated on live single cells; the percent of cells in each quadrant is indicated. FIG. 8F. Compiled gene editing frequencies for cells transfected with the Left, Right, or both CD147 sgRNAs. The percent of mCD147^+hCD147^− (bottom portion of each set of bars in each graph), mCD147^+hCD147^+ (top portion of left and center sets of bars in each graph and center portion of right set of bars in each graph), and mCD147^−hCD147^− (top portion of right set of bars in each graph) cells among the three hiPSC lines is indicated.
PCR reactions were done using polymerase sold under the trademark KAPA HIFI™ HotStart polymerase; primers and double-stranded DNA fragments sold under the trademark GBLOCKS® are from IDT. Plasmids were constructed using isothermal assembly, transformed into Stbl3 competent E. coli (Invitrogen), grown at 30° C., and verified by Sanger sequencing (Genewiz). Anti-apoptotic genes were obtained from previously published plasmids: Bcl-2 (Addgene plasmid #8793) and Bcl-xL (#8790) (Cheng et al., 2001); Bcl2A1 (#36973) (Pratt et al., 2012); and Mcl-1 (#21605) (Maurer et al., 2006). The dominant negative p53 sequence from Addgene plasmid #9058 (Hahn et al., 2002) was synthesized as a gBlock. These genes were cloned into the EF1α promoter-Cas9 nuclease plasmid after an IRES.
The U6 promoter-sgRNA (for each sgRNA sequence) was cloned into the EF1α promoter-Cas9 nuclease or EF1α promoter-Cas9 nuclease-IRES-Bcl-2 expression plasmids to form the “Cas9 only sgRNA” or “Cas9 Bcl-2 sgRNA” plasmids used in Examples 6 and 7. […]

Bcl-2: B cell lymphoma 2 protein, anti-apoptotic, overexpressed from lentivirus or Cas9 plasmid
gene targeting at the CD147 and Thy1 loci (Bcl-2 on the Cas9 plasmid, PGP4 hiPSC line): markedly improved gene targeting
mCD147 gene targeting frequencies (Bcl-2 on the Cas9 plasmid, retroviral and non-integrating PGP1 hiPSC lines): substantially and reproducibly increased gene targeting frequencies
mThy1 gene targeting, wild type vs mutant Bcl-2 (Cas9 Bcl-2 sgRNA plasmids, transient transfection): greatest enhancement
mThy1 gene targeting frequencies compared to Cas9 only controls (transient transfection of Cas9-IRES-anti-apoptotic factor plasmid): the only anti-apoptotic factor that increased gene targeting frequencies
